Measured values reported in ChEMBL document CHEMBL4411344, “Synthesis and biological evaluation of new long-chain squaramides as anti-chagasic agents in the BALB/c mouse model” (Bioorg Med Chem, 2019).
Activity calls are given as the source filed them. The calls are words filed in the database; no cut-off is given here.

What was measured:
Trypanosoma cruzi [1] = test: Trypanocidal activity against Trypanosoma cruzi MHOM/Pe/2011/Arequipa DTU 5 amastigotes infected in African green monkey Vero cells assessed as reduction in number of amastigotes per infected cells at log -0.41 to 1.7 after 72 hrs by Giemsa-staining based assay; type: functional, organism-based
Trypanosoma cruzi [2] = test: (§1) Antitrypanosomal activity against Trypanosoma cruzi MHOM/Pe/2011/Arequipa DTU 5 trypomastigotes infected in Balb/c mouse assessed as parasite-free adipose tissue at 20 mg/kg, po pretreated once daily for 5 consecutive days starting from day 10 post infection followed by cyclophosphamide-induced immunosuppression on day 100 post infection measured on day 127 post infection by PCR method; type: functional
Trypanosoma cruzi [3] = test: as §1, with “bone marrow” for “adipose tissue”; type: functional
Trypanosoma cruzi [4] = test: as §1, with “brain” for “adipose tissue”; type: functional
Trypanosoma cruzi [5] = test: as §1, with “oesophagus” for “adipose tissue”; type: functional
Trypanosoma cruzi [6] = test: as §1, with “muscle” for “adipose tissue”; type: functional
Trypanosoma cruzi [7] = test: as §1, with “spleen” for “adipose tissue”; type: functional
Trypanosoma cruzi [8] = test: as §1, with “from day 75 post infection” for “from day 10 post infection”; type: functional
Trypanosoma cruzi [9] = test: as §1, with “as parasite-free bone marrow at 20” for “as parasite-free adipose tissue at 20”, “from day 75 post infection” for “from day 10 post infection”; type: functional
Trypanosoma cruzi [10] = test: as §1, with “as parasite-free brain at 20” for “as parasite-free adipose tissue at 20”, “from day 75 post infection” for “from day 10 post infection”; type: functional
Trypanosoma cruzi [11] = test: as §1, with “as parasite-free oesophagus at 20” for “as parasite-free adipose tissue at 20”, “from day 75 post infection” for “from day 10 post infection”; type: functional
Trypanosoma cruzi [12] = test: as §1, with “as parasite-free heart at 20” for “as parasite-free adipose tissue at 20”, “from day 75 post infection” for “from day 10 post infection”; type: functional
Trypanosoma cruzi [13] = test: as §1, with “as parasite-free spleen at 20” for “as parasite-free adipose tissue at 20”, “from day 75 post infection” for “from day 10 post infection”; type: functional
Trypanosoma cruzi [14] = test: as §1, with “as parasite-free stomach at 20” for “as parasite-free adipose tissue at 20”, “from day 75 post infection” for “from day 10 post infection”; type: functional
Trypanosoma cruzi [15] = test: Antitrypanosomal activity against Trypanosoma cruzi MHOM/Pe/2011/Arequipa DTU 5 trypomastigotes infected in Balb/c mouse assessed as reduction in Ig-G level in serum at 20 mg/kg, po once daily for 5 consecutive days starting from day 10 post infection measured on day 100 post infection by ELISA; type: functional, organism-based
Trypanosoma cruzi [16] = test: (§2) Antitrypanosomal activity against Trypanosoma cruzi MHOM/Pe/2011/Arequipa DTU 5 trypomastigotes infected in Balb/c mouse assessed as reduction in Ig-G level in serum at 20 mg/kg, po pretreated once daily for 5 consecutive days starting from day 10 post infection followed by cyclophosphamide-induced immunosuppression on day 100 post infection measured on day 127 post infection by ELISA; type: functional, organism-based
Trypanosoma cruzi [17] = test: Antitrypanosomal activity against Trypanosoma cruzi MHOM/Pe/2011/Arequipa DTU 5 trypomastigotes infected in Balb/c mouse assessed as reduction in Ig-G level in serum at 20 mg/kg, po once daily for 5 consecutive days starting from day 75 post infection measured on day 81 post infection by ELISA; type: functional, organism-based
Trypanosoma cruzi [18] = test: as §2, with “from day 75 post infection” for “from day 10 post infection”; type: functional, organism-based
Trypanosoma cruzi [19] = test: Antitrypanosomal activity against Trypanosoma cruzi MHOM/Pe/2011/Arequipa DTU 5 epimastigotes assessed as change in mitochondrial membrane potential at IC25 after 72 hrs by Rho123 staining based flow cytometry relative to control; type: functional
Trypanosoma cruzi [20] = test: Antitrypanosomal activity against Trypanosoma cruzi MHOM/Pe/2011/Arequipa DTU 5 epimastigotes assessed as reduction in DNA and RNA levels at IC25 after 72 hrs by acridine orange staining based flow cytometry relative to control; type: functional
[21] = Toxicity in Balb/c mouse assessed as death at 20 mg/kg, po once daily for 5 consecutive days starting from day 75 post infection; type: organism-based; settings: in vivo
[22] = Nephrotoxicity in Balb/c mouse infected with Trypanosoma cruzi MHOM/Pe/2011/Arequipa DTU 5 trypomastigotes assessed as decrease in serum urea level at 20 mg/kg, po once daily for 5 consecutive days starting from day 10 post infection measured on day 127 post infection relative to control; type: toxicity, organism-based; settings: in vivo
[23] = Nephrotoxicity in Balb/c mouse infected with Trypanosoma cruzi MHOM/Pe/2011/Arequipa DTU 5 trypomastigotes assessed as decrease in serum urea level at 20 mg/kg, po once daily for 5 consecutive days starting from day 75 post infection measured on day 81 post infection relative to control; type: toxicity, organism-based; settings: in vivo
[24] = Nephrotoxicity in Balb/c mouse infected with Trypanosoma cruzi MHOM/Pe/2011/Arequipa DTU 5 trypomastigotes assessed as decrease in serum urea level at 20 mg/kg, po once daily for 5 consecutive days starting from day 75 post infection measured on day 127 post infection relative to control; type: toxicity, organism-based; settings: in vivo
[25] = Nephrotoxicity in Balb/c mouse infected with Trypanosoma cruzi MHOM/Pe/2011/Arequipa DTU 5 trypomastigotes assessed as decrease in serum uric acid level at 20 mg/kg, po once daily for 5 consecutive days starting from day 10 post infection measured on day 16 post infection relative to control; type: toxicity, organism-based; set-up: scale not given: the % may be the effect or the level left; settings: in vivo
[26] = (§3) Hepatotoxicity in Balb/c mouse infected with Trypanosoma cruzi MHOM/Pe/2011/Arequipa DTU 5 trypomastigotes assessed as increase in ratio of serum AST to GOT level at 20 mg/kg, po once daily for 5 consecutive days starting from day 10 post infection measured on day 16 post infection relative to control; type: toxicity, organism-based; settings: in vivo
[27] = as §3, with “75” for “10”, “81” for “16”; type: toxicity, organism-based; settings: in vivo
[28] = as §3, with “change” for “increase”, “ALT” for “AST”, “GPT” for “GOT”, “127” for “16”, “by biochemical analysis (reference value: 49 U/L)” for “relative to control”; type: toxicity, organism-based; settings: in vivo
[29] = as §3, with “ALT” for “AST”, “GPT” for “GOT”, “75” for “10”, “81” for “16”; type: toxicity, organism-based; settings: in vivo

Row | SMILES | Activity (Trypanosoma cruzi [1]) | Activity (Trypanosoma cruzi [2]) | Activity (Trypanosoma cruzi [3]) | Activity (Trypanosoma cruzi [4]) | Activity (Trypanosoma cruzi [5]) | Activity (Trypanosoma cruzi [6]) | Activity (Trypanosoma cruzi [7]) | Activity (Trypanosoma cruzi [8]) | Activity (Trypanosoma cruzi [9]) | Activity (Trypanosoma cruzi [10]) | Activity (Trypanosoma cruzi [11]) | Activity (Trypanosoma cruzi [12]) | Activity (Trypanosoma cruzi [13]) | Activity (Trypanosoma cruzi [14]) | Activity (Trypanosoma cruzi [15]) | Activity (Trypanosoma cruzi [16]) | Activity (Trypanosoma cruzi [17]) | Activity (Trypanosoma cruzi [18]) | Activity (Trypanosoma cruzi [19]) [%] | inhibition (INH) (Trypanosoma cruzi [20]) [%] | other results
1 | O=C(Cn1ccnc1[N+](=O)[O-])NCc1ccccc1 [BENZNIDAZOLE] | Active | 33% | 33% | 33% | 33% | 33% | 33% | 55% | 55% | 55% | 55% | 55% | 55% | 55% | Active | Active | inactive | Active | -35.38 | 22.38 | Activity [21]: Non-Toxic; Activity [22]: 20 to 30 mg/dL; Activity [23]: 20 to 30 mg/dL; Activity [24]: 20 to 30 mg/dL; Activity [25]: > 40%; Activity [26]: > 40 U/L; Activity [27]: 20 to 30 U/L; Activity [28]: 49 U/L; Activity [29]: 20 to 30 U/L
2 | CCCCCCCCCCCCCCCCNc1c(N(C)CCCN(C)C)c(=O)c1=O | Active | 67% | 67% | 67% | 67% | 67% | 67% | 78% | 78% | 78% | 78% | 78% | 78% | 78% | Active | Active | inactive | Active | -80.61 | 49.05 | Activity [21]: Non-Toxic; Activity [22]: 10 to 20 mg/dL; Activity [23]: 10 to 20 mg/dL; Activity [24]: 10 to 20 mg/dL; Activity [25]: > 40%; Activity [26]: 10 to 20 U/L; Activity [27]: 10 to 20 U/L; Activity [28]: 49 U/L; Activity [29]: 20 to 30 U/L
3 | CCCCCCNc1c(N(C)CCCN(C)C)c(=O)c1=O | Active | inactive | inactive | inactive | inactive | inactive | inactive | inactive | inactive | inactive | inactive | inactive | inactive | inactive | inactive | inactive | inactive | inactive | 4.69 | 31.13 | Activity [21]: Non-Toxic; Activity [22]: 10 to 20 mg/dL; Activity [23]: 10 to 20 mg/dL; Activity [24]: 10 to 20 mg/dL; Activity [25]: > 40%; Activity [26]: 30 to 40 U/L; Activity [27]: 10 to 20 U/L; Activity [28]: 49 U/L; Activity [29]: 20 to 30 U/L
